In patent US9249137B2, “Dicarboximide derivatives of berbamine, the preparation and use thereof” (HANGZHOU BENSHENG PHARMACEUTICAL CO., LTD., priority 2010, dated 2016):
Where two headings read alike, the source gives them in different places.

Legend:
[1] = system: human leukemia Jurkat cells; details: cited from earlier work
[2] = system: normal human peripheral blood leucocytes; details: concentration range 0.5 ug/mL to 10 ug/mL; cited from earlier work
[3] = system: MGC 803 (human gastric cancer cell); test: MTT growth inhibition of human solid tumor cells, 72 hours; assay type: cell-based; details: compared with berbamine itself
From the text: (§1) Human solid tumor cell lines: HepG2 (human hepatocellular carcinoma, HCC), A549 (human lung cancer), MCF-7 (breast cancer), PANC-1 (pancreatic cancer), PC-3 (prostate cancer), MG63 (osteosarcomas), AGS (gastric cancer), Huh7 (human hepatoma cell), Becap37 (human breast cancer cell), Hela (human cervical cancer cell), RKO (human colon adenocarcinoma cell), SW620 (human colon adenocarcinoma cells), SW480 (human colon cancer cell), MGC 803 (human gastric cancer cell).
(§2) Obtaining 4000 well-growing human solid tumor cells and inoculating them into wells of a 96-well cell culture plate. The culture medium is DMEM High Glucose cell culture medium containing 10% fetal bovine serum. After adding the berbamine derivatives of different concentrations and mixing uniformly, the plate is placed in a carbon dioxide cell incubator (5% CO2) at 37° C. and incubated for 72 hours. Then the viable cell concentration is determined by the MTT method, and the cell viability (%) after drug treatment is calculated. In this experiment, the cell viability of control group (not treated with any compound) is set as 100%.

[4] = system: Becap37 (human breast cancer cell); test: as above; assay type: cell-based; details: compared with berbamine itself
From the text: as §1, §2

[5] = system: MCF-7 (breast cancer); test: as above; assay type: cell-based; details: compared with berbamine itself
From the text: as §1, §2

[6] = system: PANC-1 (pancreatic cancer); test: as above; assay type: cell-based; details: compared with berbamine itself
From the text: as §1, §2

[7] = system: HepG2 (human hepatocellular carcinoma, HCC); test: as above; assay type: cell-based; details: compared with berbamine itself
From the text: as §1, §2

[8] = system: MG63 (osteosarcomas); test: as above; assay type: cell-based; details: compared with berbamine itself
From the text: as §1, §2

[9] = system: K562/adr (drug-resistant chronic myeloid leukemia); test: MTT growth inhibition of leukemia cells, 72 hours; assay type: cell-based, human; details: compared with berbamine itself
From the text: (§3) Leukemia cell lines: human K562 leukemia cell line (chronic myeloid leukemia, CML), K562/adr (drug-resistant chronic myeloid leukemia (CML), NB4 (acute promyelocytic leukemia, AML), Kasumi-1 (acute myeloid leukemia M2 type, AML-M2), Jurkat (acute lymphoblastic leukemia, ALL), H9 (acute lymphoblastic leukemia, ALL).
(§4) Obtaining 6000 well-growing leukemia cells and inoculating them into wells of a 96-well cell culture plate. The culture medium is the 1640 cell culture medium containing 10% fetal bovine serum. After adding of the berbamine derivatives of different concentrations and mixing uniformly, the plate is placed in a carbon dioxide cell incubator (5% CO2) at 37° C. and incubated for 72 hours. Then the viable cell concentration is determined by the MTT method.

[10] = system: human K562 leukemia cell line (chronic myeloid leukemia, CML); test: MTT growth inhibition of leukemia cells, 72 hours; assay type: cell-based; details: compared with berbamine itself
From the text: as §3, §4

[11] = system: RPMI8226 (multiple myeloma); test: MTT growth inhibition of multiple myeloma cells, 72 hours; assay type: cell-based, human; details: compared with berbamine itself
Experimental: Multiple myeloma and lymphoma cell lines: U266 (multiple myeloma), RPMI8226 (multiple myeloma), and DOHH2 (lymphoma).
as §4, with “aforesaid tumor” for “leukemia”, “adding” for “adding of”

[12] = target: CaM (Homo sapiens, UniProt P0DP23); details: relative to berbamine; cited from earlier work
[13] = system: red cell membrane CaM-independent Ca^2++Mg^2+ ATPase; details: relative to berbamine; cited from earlier work

## COc1cc2c3cc1Oc1c(OC)c(OC)cc4c1[C@@H](Cc1ccc(O)c(c1)Oc1ccc(cc1)C[C@@H]3N(C)CC2)N(C)CC4 [BBM, 6,6′,7-trimethoxy-2,2′-dimethylberbaman-12-ol]
[1]; drug concentration 0.5 ug/mL
  cell viability rate: 93.69%
[1]; drug concentration 10 ug/mL
  cell viability rate: 14.85%
[2]
  cytotoxicity on normal human peripheral blood leucocytes: no obvious cytotoxicity

## COc1cc2c3cc1Oc1c(OC)c(OC)cc4c1[C@@H](Cc1ccc(OCCCCCCCN5C(=O)c6ccccc6C5=O)c(c1)Oc1ccc(cc1)C[C@@H]3N(C)CC2)N(C)CC4 [BS-BE-003, 12-O-(7-(1,3-dioxo-isoindolin-2-yl)-heptyl)-berbamine]
[3]
  improvement of anti-MGC 803 (human gastric cancer cells) activity: ~7 fold
[4]
  improvement of anti-Becap37 (human breast cancer cell) activity: ~5 fold
[5]
  improvement of anti-MCF-7 (breast cancer) activity: ~6 fold
[6]
  improvement of anti-PANC-1 (pancreatic cancer) activity: more than 6 fold
[7]
  improvement of anti-HepG2 (human hepatocellular carcinoma, HCC) activity: ~5 fold
[8]
  improvement of anti-MG63 (osteosarcomas) activity: ~8 fold
[9]
  improvement of anti-K562/adr (drug-resistant chronic myelogenous leukemia) activity: more than 6 fold
[10]
  improvement of anti-human K562 chronic myelogenous leukemia activity: more than 5 fold
[11]
  improvement of anti-RPMI8226 (multiple myeloma) cell activity: ~6 fold

## CCOCCCCOc1ccc2cc1Oc1ccc(cc1)C[C@H]1c3cc(c(OC)cc3CCN1C)Oc1c(OC)c(OC)cc3c1[C@@H](C2)N(C)CC3 [EBB, [O-(4-ethoxy)-butyl]-berbamine]
[12]
  specific coefficient as CaM antagonist, higher than that of berbamine: 6.5 fold

## O-Dansyl berbamine [DB]
[13]
  inhibitory activity on red cell membrane CaM-independent Ca^2++Mg^2+ ATPase, stronger than that of berbamine: 25 fold
